Data: publication PMC10132538, “Regulation of the two-pore domain potassium channel, THIK-1 and THIK-2, by G protein coupled receptors” (PLOS ONE, 2023)

Assays:
[1] = system: intracellular cAMP (Gs signaling, A2aR); test: Intracellular cAMP, FRET based cAMP indicator in HEK293T cells; assay type: cell-based; settings: NECA 10 μM
Protocol: HEK293T cells were culture on the glass bottom dishes and transfected with cDNAs for FRET based cAMP indicators and A2aR. […] transfection, cells were incubated in bath solution containing (mM) 140 NaCl, 1 CaCl2, 4 KCl, 0.3 MgCl2, 10 HEPES (pH was adjusted to 7.4 with NaOH) and fluorescent signals were acquired as previously described. CFP was excited by 442 nm laser line and emitted light was passed through S470/30 and S535/30 filters (Chroma), respectively. The fluorescence images were then amplified by an image intensifier unit (C8600, Hamamatsu Photonics) and recorded every 5 s using a cooled CCD camera (Qimage Retiga 6000, Roper Scientific). A laser switching controller (Olympus) was operated by using MetaFluor imaging software (Universal Imaging). The fluorescent intensities of CFP and YFP upon the CFP excitation were measured from fluorescent cells and cell free background.
Time dependent changes of the FRET efficiency of the FRET based cAMP indicator (FFRET/FCFP) are shown. Black bars show the application of the reagents, which was carried out by perfusion of the chamber (0.2-0.3 mL bath volume) with bath solution (1 mL) containing the reagent. […] The decrease in FRET were thought to be caused by the activation of the endogenous A2aR (Fig. S2E). Symbols show mean and SD.

[2] = system: endogenously expressed channels in HEK293T cells; test: Effect of receptor stimulation on the endogenous current in HEK293T cells without THIK-1; assay type: cell-based; settings: no THIK-1
Excerpt: The amplitude of the current increase at the 15th trace (ΔI15th) after the application of GABA or oxo-M were normalized to that at the 5th traces (ΔI5th) with or without additional activation of A2aR (ΔI15th/ΔI5th).
The current density at 0 mV (I0) in HEK293T cell transfected with indicated receptors and the effects of the receptor stimulation are shown as Mean and S.D.

M2R = target: T1, M2R (Homo sapiens, UniProt P08172); test: M2R-induced increase of THIK-1 channel current, whole cell patch clamp in HEK293T cells; assay type: cell-based
T1 construct: expressed in transfected cells; host or cells: HEK293T
T1 sequence (P08172 1-466): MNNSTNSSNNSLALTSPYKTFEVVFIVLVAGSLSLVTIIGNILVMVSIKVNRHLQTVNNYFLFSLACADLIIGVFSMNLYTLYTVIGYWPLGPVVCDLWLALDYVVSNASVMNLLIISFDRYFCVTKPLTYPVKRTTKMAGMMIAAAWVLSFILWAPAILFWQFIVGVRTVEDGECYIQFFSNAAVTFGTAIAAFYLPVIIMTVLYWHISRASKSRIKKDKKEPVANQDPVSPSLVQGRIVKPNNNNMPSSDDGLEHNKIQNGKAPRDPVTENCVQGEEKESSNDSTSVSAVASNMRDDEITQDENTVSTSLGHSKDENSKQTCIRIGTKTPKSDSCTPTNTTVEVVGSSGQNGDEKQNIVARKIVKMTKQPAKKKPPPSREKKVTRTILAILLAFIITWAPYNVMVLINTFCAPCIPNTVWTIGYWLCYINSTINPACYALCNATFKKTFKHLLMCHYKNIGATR
Excerpt: (§1) Coding region of mGu2 (M1-P840) was amplified by conventional PCR with designed primers and the resulting product was subcloned into pEYFP-N1 vector at the BglII and EcoRI sites. The cDNAs for mouse THIK-2 channel and dimeric THIK channels were subcloned into pcDNA3.1(-) vector. To increase the surface membrane expression of the THIK-2 channel, 29 residues (Ser2-Ser30) were removed (ΔN-THIK-2). […] Ci-VSP-IRES-GFP vector was kindly gifted by Dr. Y. Okamura (Osaka University, Osaka, Japan). HEK293T cells or CHO-K1 cells were seeded on glasses and transfected with the plasmid DNAs for THIK channels, receptors and a transfection marker of yellow fluorescent protein (YFP). Electrophysiological experiments were performed 24–72 h after the transfection. […] Pertussis toxin (PTX) was purchased from Wako (Osaka, Japan). […] All reagents were dissolved at high concentration and stored at -20 °C as the stock solutions. The stock reagent solution was diluted at concentrations for the electrophysiological experiments. […]
(§2) The amplitude of the THIK-1 channel current at 0 mV was measured from every trace induced by the ramp pulse protocol to minimize the fraction of non-selective cationic leak current. […] The effects of GPCRs on the THIK-1 channel were evaluated as the ratio of the current amplitude after the agonist application to I0 (Iagonist/I0). […]

M3R = target: T2, M3R (Homo sapiens, UniProt P20309); test: M3R-induced increase of THIK-1 channel current, whole cell patch clamp in HEK293T cells; assay type: cell-based
T2 construct: expressed in transfected cells; host or cells: HEK293T
Excerpt: as §1, §2

M1R = target: T3, M1R (Homo sapiens, UniProt P11229); test: M1R-induced increase of THIK-1 channel current, whole cell patch clamp in HEK293T cells; assay type: cell-based
T3 construct: expressed in transfected cells; host or cells: HEK293T
T3 sequence (P11229 1-460): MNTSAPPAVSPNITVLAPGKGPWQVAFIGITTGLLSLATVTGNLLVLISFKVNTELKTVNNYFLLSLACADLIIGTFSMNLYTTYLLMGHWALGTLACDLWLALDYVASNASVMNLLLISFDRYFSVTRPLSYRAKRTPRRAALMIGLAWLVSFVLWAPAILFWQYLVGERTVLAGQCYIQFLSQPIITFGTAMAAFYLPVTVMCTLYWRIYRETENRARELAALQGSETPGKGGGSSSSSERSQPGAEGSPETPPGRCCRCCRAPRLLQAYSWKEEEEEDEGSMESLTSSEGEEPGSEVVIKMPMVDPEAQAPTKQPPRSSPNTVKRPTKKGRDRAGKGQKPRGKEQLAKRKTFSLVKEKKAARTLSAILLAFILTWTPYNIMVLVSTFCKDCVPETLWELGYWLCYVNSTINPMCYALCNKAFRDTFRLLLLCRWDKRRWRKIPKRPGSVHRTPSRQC
Excerpt: (§3) Coding region of mGu2 (M1-P840) was amplified by conventional PCR with designed primers and the resulting product was subcloned into pEYFP-N1 vector at the BglII and EcoRI sites. The cDNAs for mouse THIK-2 channel and dimeric THIK channels were subcloned into pcDNA3.1(-) vector. To increase the surface membrane expression of the THIK-2 channel, 29 residues (Ser2-Ser30) were removed (ΔN-THIK-2). […] Ci-VSP-IRES-GFP vector was kindly gifted by Dr. Y. Okamura (Osaka University, Osaka, Japan). HEK293T cells or CHO-K1 cells were seeded on glasses and transfected with the plasmid DNAs for THIK channels, receptors and a transfection marker of yellow fluorescent protein (YFP). Electrophysiological experiments were performed 24–72 h after the transfection. […] Pertussis toxin (PTX) was purchased from Wako (Osaka, Japan). […] All reagents were dissolved at high concentration and stored at -20 °C as the stock solutions. The stock reagent solution was diluted at concentrations for the electrophysiological experiments. PTX was solved in the culture medium (final concentration, 300 ng/mL) and cells were incubated in it for more than 16 h. U73122 or U73343 (final concentration, 2 μM each) was dissolved in Hanks’ Balanced Salt Solution (HBSS, Invitrogen, Carlsbad, CA, USA) supplemented with 1 mM Ca^2+ and 0.3 mM Mg^2+. Cells were incubated in HBSS with U73122 or U73343 for 10 min at room temperature before the whole cell current recording.
(§4) Composition of bath solution was (in mM) 140 NaCl, 4 KCl, 1 CaCl2, 0.3 MgCl2, 10 HEPES (pH 7.4 adjusted with NaOH). The pipette solution for whole cell patch clamp experiments contained (mM) 130 KCl, 5 Na2-ATP, 3 EGTA, 0.1 CaCl2, 10 HEPES, 4 MgCl2, (pH 7.3 adjusted with KOH). GTP (0.3 mM) was supplemented in the pipette solution. Once the whole cell configuration was established, the cell was held at -80mV and ramp pulses (-120mV to +40mV for 0.4 sec) were applied every 5 sec. Various concentrations of the agonists were applied using a fast perfusion system (VC77SP, Warner Instruments, Hamden, CT, USA). The PKC inhibitor chelerythrine was included in the pipette solution.
(§5) The amplitude of the THIK-1 channel current at 0 mV was measured from every trace induced by the ramp pulse protocol to minimize the fraction of non-selective cationic leak current. The current amplitude before the agonist application was set as the basal current amplitude (I0). The effects of GPCRs on the THIK-1 channel were evaluated as the ratio of the current amplitude after the agonist application to I0 (Iagonist/I0). The EC50 values were estimated by fitting the concentration response curve to a Hill equation (Origin2016; OriginLab, Northampton, MA, USA). […] The effects of A2aR on the Gi/o-R-induced current increase of the THIK-1 channel was estimated as follows. […] All data are shown as means and S.D. The statistical significance between two or more than two groups was estimated by unpaired Student’s t-test or by a one-way analysis of variance (ANOVA) followed by Tukey’s test, respectively. […] Values of p≤ 0.05 were considered as statistically significant (***:p≤0.001, **:0.001<p≤0.01, *:0.01<p≤0.05, n.s.:p>0.05).

mGlu1 = target: T4, mGlu1 (Homo sapiens, UniProt Q13255); test: mGlu1-induced increase of THIK-1 channel current, whole cell patch clamp in HEK293T cells; assay type: cell-based; settings: 2 μM for 10 min; glutamate 1 mM
T4 construct: expressed in transfected cells; host or cells: HEK293T
Excerpt: as §1, §2

THIK-1 channel [3] = test: Basal current (I0) density of THIK-1 channel at 0 mV in HEK293T cells; assay type: cell-based; settings: 0 mV, before agonist
Excerpt: as §3, §4, §5

[4] = target: T5, M1R-YFP / ΔN-THIK-2 channel (Homo sapiens, UniProt P11229); test: M1R-YFP-induced increase of ΔN-THIK-2 channel current in CHO-K1 cells; assay type: cell-based, mouse; settings: oxo-M 10 μM
T5 construct: expressed in transfected cells; host or cells: CHO-K1
T5 sequence (P11229 1-460): T3 sequence (P11229 1-460)
Excerpt: as §3, with “Cells were incubated in HBSS with U73122 or U73343 for 10 min at room temperature before the whole cell current recording.” left out

THIK-1 channel [5] = system: THIK-1 channel; parameters: method as in PMID 34928298; settings: cited from earlier work
[6] = concentration response of THIK-1 current increase
[7] = concentration response of THIK-1 current increase (Iagonist/I0), Hill fit

T2 sequence (P20309 whole entry): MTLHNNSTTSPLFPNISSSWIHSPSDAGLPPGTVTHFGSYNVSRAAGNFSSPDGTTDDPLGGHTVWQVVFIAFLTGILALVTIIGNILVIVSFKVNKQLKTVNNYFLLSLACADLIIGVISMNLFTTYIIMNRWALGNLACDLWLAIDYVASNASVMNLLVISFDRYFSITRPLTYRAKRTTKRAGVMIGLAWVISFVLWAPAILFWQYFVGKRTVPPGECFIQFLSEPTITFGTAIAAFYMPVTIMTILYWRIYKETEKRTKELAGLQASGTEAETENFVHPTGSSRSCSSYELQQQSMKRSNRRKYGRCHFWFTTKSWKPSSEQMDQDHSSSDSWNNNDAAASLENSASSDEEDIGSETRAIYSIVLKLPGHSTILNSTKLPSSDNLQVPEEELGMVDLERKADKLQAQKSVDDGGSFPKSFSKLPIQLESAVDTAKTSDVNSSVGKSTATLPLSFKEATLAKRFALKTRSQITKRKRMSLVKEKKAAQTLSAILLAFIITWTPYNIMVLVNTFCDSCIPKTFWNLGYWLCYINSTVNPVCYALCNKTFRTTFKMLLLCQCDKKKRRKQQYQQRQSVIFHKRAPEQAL
T4 sequence (Q13255 19-1194): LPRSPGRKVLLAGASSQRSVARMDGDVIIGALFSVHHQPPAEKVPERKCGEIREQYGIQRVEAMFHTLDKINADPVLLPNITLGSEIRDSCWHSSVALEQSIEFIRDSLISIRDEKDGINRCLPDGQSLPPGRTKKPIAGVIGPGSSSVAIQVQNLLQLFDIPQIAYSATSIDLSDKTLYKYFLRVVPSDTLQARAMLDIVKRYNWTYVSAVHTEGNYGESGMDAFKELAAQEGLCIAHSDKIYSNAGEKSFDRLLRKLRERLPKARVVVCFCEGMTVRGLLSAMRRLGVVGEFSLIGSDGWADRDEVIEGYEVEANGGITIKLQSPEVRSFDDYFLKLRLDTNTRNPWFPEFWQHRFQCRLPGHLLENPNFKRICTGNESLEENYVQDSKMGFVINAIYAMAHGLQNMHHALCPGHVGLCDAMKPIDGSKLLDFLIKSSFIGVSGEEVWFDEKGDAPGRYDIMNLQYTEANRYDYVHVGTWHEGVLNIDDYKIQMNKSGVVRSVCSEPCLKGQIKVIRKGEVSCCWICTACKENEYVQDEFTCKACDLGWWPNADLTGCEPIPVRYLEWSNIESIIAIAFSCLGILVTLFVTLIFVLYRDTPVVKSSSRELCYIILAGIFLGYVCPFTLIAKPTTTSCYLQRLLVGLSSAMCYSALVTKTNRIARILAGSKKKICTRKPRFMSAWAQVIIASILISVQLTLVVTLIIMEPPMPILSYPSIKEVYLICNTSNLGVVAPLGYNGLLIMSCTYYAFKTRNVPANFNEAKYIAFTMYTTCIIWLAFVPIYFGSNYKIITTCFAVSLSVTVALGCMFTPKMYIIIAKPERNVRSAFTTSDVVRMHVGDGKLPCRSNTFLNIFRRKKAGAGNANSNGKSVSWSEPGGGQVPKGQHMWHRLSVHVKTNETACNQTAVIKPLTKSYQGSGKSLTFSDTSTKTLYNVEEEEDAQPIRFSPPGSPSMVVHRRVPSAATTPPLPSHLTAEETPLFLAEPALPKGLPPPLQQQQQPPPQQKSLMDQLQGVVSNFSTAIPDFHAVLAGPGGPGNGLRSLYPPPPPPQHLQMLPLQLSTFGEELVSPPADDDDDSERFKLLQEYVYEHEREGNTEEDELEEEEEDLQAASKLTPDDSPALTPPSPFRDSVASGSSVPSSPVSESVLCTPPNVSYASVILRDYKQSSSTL

CCNC(=O)[C@H]1O[C@@H](n2cnc3c(N)ncnc32)[C@H](O)[C@@H]1O [NECA, 5’-N-ethylcarboxamidoadenosine]
Gs signaling (cAMP indicator) ([1]; HEK293T transfected with heterologous A2aR): fully activated | intracellular cAMP ([1]; HEK293T without heterologous A2aR (endogenous A2aR), effect partial): increased the intracellular cAMP

NCCCC(=O)O [GABA]
Effect of agonist (Iagonist/I0) ([2]; HEK293T transfected with GABABR): 1.03 ± 0.06

C[N+](C)(C)CC#CCN1CCCC1=O [oxo-M, oxotremorine-M]
n; Hill coefficient (M2R; [6]): 1.54 ± 0.37 | EC50 (M2R; [7]): 62700 ± 35800 nM | n; Hill coefficient (M3R; [6]): 1.07 ± 0.43 | EC50 (M3R; [7]): 400 ± 310 nM | EC50 (M1R; concentration response of THIK-1 current increase (Iagonist/I0), Hill fit, HEK293T): 270 ± 160 nM | n; Hill coefficient (M1R; concentration response of THIK-1 current increase, HEK293T): 1.14 ± 0.22 | Ioxo/I0 (M1R; oxo-M 10 μM, chelerythrine 0 μM (control of Table 3)): 2.8 ± 1.1 | Effect of agonist (Iagonist/I0) ([2]; HEK293T transfected with M1R): 0.95 ± 0.15 | Effect of agonist (Iagonist/I0) ([2]; HEK293T transfected with M2R): 0.97 ± 0.12 | Effect of agonist (Iagonist/I0) ([2]; HEK293T transfected with M3R): 1.01 ± 0.13

COc1ccc2c(c1)CC[C@@H]1[C@@H]2CC[C@]2(C)[C@@H](NCCCCCCN3C(=O)C=CC3=O)CC[C@@H]12 [U73122]
effect of mGlu1 on THIK-1 current after PLC reagent (mGlu1): inhibited | Basal current (I0) density of THIK-1 channel (THIK-1 channel [3]; THIK-1 + M1R, PLC reagent 2 μM 10 min): 35.7 ± 34.7 (9)^n.s pA/pF | Basal current (I0) density of THIK-1 channel (THIK-1 channel [3]; THIK-1 + M3R, PLC reagent 2 μM 10 min): 99.2 ± 117.3 (7)^n.s pA/pF | Basal current (I0) density of THIK-1 channel (THIK-1 channel [3]; THIK-1 + mGlu1, PLC reagent 2 μM 10 min): 112.2 ± 121.4 (10)^n.s pA/pF | effect of M1R-YFP on ΔN-THIK-2 channel after PLC reagent [4]: inhibited

phosphatidyl inositol bisphosphate [PIP2]
activation of the THIK-1 channel (THIK-1 channel [5]): directly activate
